Consider 28 compounds from patent US8461328B2, “Tricyclic heterocyclic compounds, compositions and methods of use thereof” (Genentech, Inc., priority 2010, dated 2013).

Type in all cases: biochemical
The target in experiment [1] is T1, JAK3 (Homo sapiens, UniProt P52333).
T1 construct: made in house; host or cells: SF9 insect cells (baculovirus)
The experiment is described as follows: JAK3 inhibition (Table 4). To be noted: read-out: JAK3 Ki.

Experiment [2] addresses T2, JAK2 (Homo sapiens, UniProt O60674).
T2 construct: made in house; host or cells: SF9 insect cells (baculovirus)
The experiment is described as follows: JAK2 inhibition (Table 4). Conditions: read-out: JAK2 Ki.

In experiment [3] the target is T3, JAK1 (Homo sapiens, UniProt P23458).
T3 construct: made in house; host or cells: SF9 insect cells (baculovirus)
The experiment is described as follows: JAK1 inhibition (Table 4). To be noted: read-out: JAK1 Ki.

Experiment [4] deals with T4, TYK2 (Homo sapiens, UniProt P29597).
T4 construct: made in house; host or cells: SF9 insect cells (baculovirus)
T4 sequence (P29597 873-1187): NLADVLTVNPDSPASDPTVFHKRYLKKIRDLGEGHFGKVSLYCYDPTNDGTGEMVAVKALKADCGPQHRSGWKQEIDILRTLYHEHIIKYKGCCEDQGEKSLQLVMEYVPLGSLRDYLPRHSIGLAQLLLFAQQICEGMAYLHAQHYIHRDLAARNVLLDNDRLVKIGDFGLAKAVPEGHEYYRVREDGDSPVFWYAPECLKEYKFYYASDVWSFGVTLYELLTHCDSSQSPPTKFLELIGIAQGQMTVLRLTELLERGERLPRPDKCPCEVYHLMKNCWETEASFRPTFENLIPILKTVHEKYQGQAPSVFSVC
The experiment is described as follows: TYK2 inhibition (Table 4).

Structures are written as SMILES.

T1 sequence (P52333 783-1124): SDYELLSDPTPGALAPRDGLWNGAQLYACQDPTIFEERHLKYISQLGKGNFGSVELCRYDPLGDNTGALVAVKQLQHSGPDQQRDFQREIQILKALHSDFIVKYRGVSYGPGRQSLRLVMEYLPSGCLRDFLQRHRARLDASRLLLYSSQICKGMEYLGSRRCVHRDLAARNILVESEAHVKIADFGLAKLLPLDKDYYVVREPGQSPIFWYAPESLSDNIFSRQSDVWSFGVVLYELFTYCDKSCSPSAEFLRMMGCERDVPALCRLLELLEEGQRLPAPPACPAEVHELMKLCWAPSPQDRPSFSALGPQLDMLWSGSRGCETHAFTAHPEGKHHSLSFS
T2 sequence (O60674 812-1132): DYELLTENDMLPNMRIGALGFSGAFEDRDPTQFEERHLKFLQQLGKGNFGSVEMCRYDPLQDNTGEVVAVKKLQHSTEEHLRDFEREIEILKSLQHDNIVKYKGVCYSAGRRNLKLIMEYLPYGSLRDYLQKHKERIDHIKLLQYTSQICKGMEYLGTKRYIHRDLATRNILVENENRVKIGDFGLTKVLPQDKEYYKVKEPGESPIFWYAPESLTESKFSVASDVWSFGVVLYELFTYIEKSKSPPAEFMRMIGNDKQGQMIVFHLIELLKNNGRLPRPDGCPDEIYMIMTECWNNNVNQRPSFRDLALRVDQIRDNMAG
T3 sequence (P23458 852-1154): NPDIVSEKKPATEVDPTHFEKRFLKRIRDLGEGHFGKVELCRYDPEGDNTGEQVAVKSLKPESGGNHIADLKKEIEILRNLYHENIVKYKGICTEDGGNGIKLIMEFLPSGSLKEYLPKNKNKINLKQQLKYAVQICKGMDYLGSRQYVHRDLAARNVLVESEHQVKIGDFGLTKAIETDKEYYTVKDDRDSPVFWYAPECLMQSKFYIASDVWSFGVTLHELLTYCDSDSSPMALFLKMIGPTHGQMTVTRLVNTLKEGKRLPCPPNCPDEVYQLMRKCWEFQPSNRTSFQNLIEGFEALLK

`c1ccc(CN2CCC(n3c(C4CCOCC4)nc4cnc5[nH]ccc5c43)CC2)cc1` [Example 154, 1-(1-Benzyl-piperidin-4-yl)-2-(tetrahydro-pyran-4-yl)-1,6-dihydro-1,2,3,5,6-tetraaza-as-indacene]: the Ki was 9.24 nM in experiment [1], 28.4 nM in experiment [2] and 15.3 nM in experiment [3].
As for `CC(C)N1CCCC[C@H]1C(=O)N1CCC(n2cnc3cnc4[nH]ccc4c32)CC1` [Example 950, ((S)-1-Isopropyl-piperidin-2-yl)-[4-(6H-1,3,5,6-tetraaza-as-indacen-1-yl)-piperidin-1-yl]-methanone], the Ki is 1420 nM in experiment [2] and 255 nM in experiment [3].
On the same counts, the results for `COCCN1CCCC[C@H]1C(=O)N1CCC(n2cnc3cnc4[nH]ccc4c32)CC1` [Example 952, [(S)-1-(2-Methoxy-ethyl)-piperidin-2-yl]-[4-(6H-1,3,5,6-tetraaza-as-indacen-1-yl)-piperidin-1-yl]-methanone] are 628 nM and 142 nM.
Consider `c1cc2c(ncc3nc(C4CCCN4)n(C4CCCOC4)c32)[nH]1` (single isomer, unassigned) [Example 666], for which the values for the Ki in experiment [1] and in experiment [3] were 4010 nM and 1690 nM, respectively.
`CC(O)c1nc2cnc3[nH]ccc3c2n1C1CCCN(C(=O)CC2CCCO2)C1` (centres unmarked) [Example 789, 1-{3-[2-(1-Hydroxy-ethyl)-6H-1,3,5,6-tetraaza-as-indacen-1-yl]-piperidin-1-yl}-2-(tetrahydro-furan-2-yl)-ethanone]: the Ki in experiment [3] amounted to 438 nM.
`CN1CCCC(C(=O)N2CCC(n3cnc4cnc5[nH]ccc5c43)CC2)C1` (single isomer, unassigned) [Example 454, (1-Methyl-piperidin-3-yl)-[4-(6H-1,3,5,6-tetraaza-as-indacen-1-yl)-piperidin-1-yl]-methanone]: the Ki in experiment [2] was determined as 1310 nM; in experiment [3], 547 nM.
For `Cc1nc2cnc3[nH]ccc3c2n1C(C)C1CCCO1` (single isomer, unassigned) [Example 427, 2-Methyl-1-[1-(tetrahydro-furan-2-yl)-ethyl]-1,6-dihydro-1,3,5,6-tetraaza-as-indacene] the same measures were 167 nM and 201 nM.
For `CN1CCCC(C(=O)N2CCC(n3cnc4cnc5[nH]ccc5c43)CC2)C1` (single isomer, unassigned) [Example 453, (1-Methyl-piperidin-3-yl)-[4-(6H-1,3,5,6-tetraaza-as-indacen-1-yl)-piperidin-1-yl]-methanone] the same measures were 1410 nM and 263 nM.
With `COC1CCC(C(=O)N2CCCC(n3c(C(C)O)nc4cnc5[nH]ccc5c43)C2)CC1` (centres unmarked) [Example 799, {3-[2-(1-Hydroxy-ethyl)-6H-1,3,5,6-tetraaza-as-indacen-1-yl]-piperidin-1-yl}-(4-methoxy-cyclohexyl)-methanone], the Ki in experiment [3] amounted to 456 nM.
Regarding `CC(O)c1nc2cnc3[nH]ccc3c2n1C1CCCN(C(=O)C2CC(=O)N(C)C2)C1` (centres unmarked) [Example 787, 4-{3-[2-(1-Hydroxy-ethyl)-6H-1,3,5,6-tetraaza-as-indacen-1-yl]-piperidine-1-carbonyl}-1-methyl-pyrrolidin-2-one], the Ki worked out at 2490 nM in experiment [1] and 464 nM in experiment [3].
In the case of `CC(C)(O)Cc1nc2cnc3[nH]ccc3c2n1C1CCNCC1` [Example 173, 2-Methyl-1-(1-piperidin-4-yl-1,6-dihydro-1,2,3,5,6-tetraaza-as-indacen-2-yl)-propan-2-ol], the Ki in experiment [1] was 3900 nM; in experiment [3], 215 nM.
Take `CN1CCC(C(=O)N2CCC(n3cnc4cnc5[nH]ccc5c43)CC2)C1` (racemic) [Example 452, (1-Methyl-pyrrolidin-3-yl)-[4-(6H-1,3,5,6-tetraaza-as-indacen-1-yl)-piperidin-1-yl]-methanone]: the results for the Ki in experiment [2] and in experiment [3] were 1170 nM and 316 nM, respectively.
Regarding `O=C(c1ccccc1)N1CCC(n2cnc3cnc4[nH]ccc4c32)CC1` [Example 35, Phenyl-[4-(6H-1,3,5,6-tetraaza-as-indacen-1-yl)-piperidin-1-yl]methanone], the results for the Ki in experiment [4], in experiment [1] and in experiment [2] were 165 nM, 692 nM and 26.1 nM, respectively.
On the same counts, the results for `C[C@@H](O)c1nc2cnc3[nH]ccc3c2n1C1CCCCC1` [Example 671, (R)-1-(1-Cyclohexyl-1,6-dihydro-1,2,3,5,6-tetraaza-as-indacen-2-yl)-ethanol] are 2.47 nM, 22.4 nM and 18.1 nM.
Consider `CCS(=O)(=O)NCCc1nc2cnc3[nH]ccc3c2n1C1CCCCC1` [Example 512, Ethanesulfonic acid [2-(1-cyclohexyl-1,6-dihydro-1,3,5,6-tetraaza-as-indacen-2-yl)-ethyl]-amide], for which the Ki in experiment [4] turned out to be 22 nM; in experiment [1], 61.7 nM; in experiment [2], 28.3 nM.
In the case of `CC(C)(C)OC(=O)N1CC(F)(F)C[C@H]1C(=O)N1CCC(n2cnc3cnc4[nH]ccc4c32)CC1` [Example 243, (S)-4,4-Difluoro-2-[4-(6H-1,3,5,6-tetraaza-as-indacen-1-yl)-piperidine-1-carbonyl]-pyrrolidine-1 carboxylic acid tert-butyl ester], the Ki in experiment [2] came to 446 nM; in experiment [3], 357 nM.
Consider `CS(=O)(=O)NCc1nc2cnc3[nH]ccc3c2n1[C@H]1CCCOC1` [Example 855, (S)—N-[1-(Tetrahydro-pyran-3-yl)-1,6-dihydro-1,3,5,6-tetraaza-as-indacen-2-ylmethyl]-methanesulfonamide], for which the Ki is 112 nM in experiment [4], 493 nM in experiment [1] and 117 nM in experiment [2].
For `CN(C)CC(=O)N1CCC(n2cnc3cnc4[nH]ccc4c32)CC1` [Example 36, 2-Dimethylamino-1-[4-(6H-1,3,5,6-tetraaza-as-indacen-1-yl)-piperidin-1-yl]ethanone] the same measures were 1190 nM, 1620 nM and 242 nM.
For `Cc1nc2cnc3[nH]ccc3c2n1[C@H]1CC[C@H](C(C)(C)O)CC1` [Example 632, 2-[4-(2-Methyl-6H-1,2,3,5,6-tetraaza-as-indacen-1-yl)-cyclohexyl]-propan-2-ol] the same measures were 13.7 nM, 36.8 nM and 3.5 nM.
On the same counts, the results for `CC1(n2cnc3cnc4[nH]ccc4c32)CCN(CC(F)(F)F)CC1` [Example 752, 1-[4-Methyl-1-(2,2,2-trifluoro-ethyl)-piperidin-4-yl]-1,6-dihydro-1,3,5,6-tetraaza-as-indacene] are 264 nM, 240 nM and 97.2 nM.
Take `CC(C)(CF)N1CCC(n2c(CNS(C)(=O)=O)nc3cnc4[nH]ccc4c32)CC1` [Example 693, N-{1-[1-(2-Fluoro-1,1-dimethyl-ethyl)-piperidin-4-yl]-1,6-dihydro-1,2,3,5,6-tetraaza-as-indacen-2-ylmethyl}-methanesulfonamide]: the Ki in experiment [4] is 332 nM; in experiment [1], 303 nM; in experiment [2] it was 72.1 nM.
For `CS(=O)(=O)NCc1nc2cnc3[nH]ccc3c2n1C1CCCC1` [Example 874, N-(1-Cyclopentyl-1,6-dihydro-1,3,5,6-tetraaza-as-indacen-2-ylmethyl)-methanesulfonamide] the same measures were 114 nM, 242 nM and 162 nM.
For `CC(C)CC(=O)N1CCC(n2cnc3cnc4[nH]ccc4c32)CC1` [Example 83, 3-Methyl-1-[4-(6H-1,3.5,6-tetraaza-as-indacen-1-yl)-piperidin-1-yl]-butan-1-one] the same measures were 187 nM, 1230 nM and 51 nM.
As to `CC1(n2cnc3cnc4[nH]ccc4c32)CCNCC1` [Example 318, 1-(4-Methyl-piperidin-4-yl)-1,6-dihydro-1,3,5,6-tetraaza-as-indacene], the Ki in experiment [4] was 1900 nM; in experiment [1] it was 976 nM; in experiment [2] it was 1100 nM.
Take `COCCC(=O)N1CCC[C@@H](n2c([C@@H](C)O)nc3cnc4[nH]ccc4c32)C1` [Example 784, 1-{(R)-3-[2-((R)-1-Hydroxy-ethyl)-6H-1,3,5,6-tetraaza-as-indacen-1-yl]-piperidin-1-yl}-3-methoxy-propan-1-one]: in experiment [3], the Ki stood at 224 nM.
On to `CN1CCCCC1C(=O)N1CCC(n2cnc3cnc4[nH]ccc4c32)CC1` (single isomer, unassigned) [Example 196, (1-Methyl-piperidin-2-yl)-[4-(6H-1,2,3,5,6-tetraaza-as-indacen-1-yl)-piperidin-1-yl]-methanone], for which the Ki in experiment [4] turned out to be 295 nM; in experiment [1], 1980 nM; in experiment [2], 94.6 nM.
Consider `CS(=O)(=O)NCc1nc2cnc3[nH]ccc3c2n1C1CCN(CC(F)F)CC1` [Example 914, N-{1-[1-(2,2-Difluoro-ethyl)-piperidin-4-yl]-1,6-dihydro-1,3,5,6-tetraaza-as-indacen-2-ylmethyl}-methanesulfonamide], for which the Ki in experiment [4] was determined as 40.3 nM; in experiment [1], 60.6 nM; in experiment [2], 35.4 nM.
On to `CC(C)(C)OC(=O)NC1CCC(n2cnc3cnc4[nH]ccc4c32)C1` (racemic) [Example 138, Racemic cis[3-(6H-1,2,3,5,6-Tetraaza-as-indacen-1-yl)-cyclopentyl]-carbamic acid tert-butyl ester], for which the Ki in experiment [4] worked out at 222 nM; in experiment [1], 143 nM; in experiment [2] it was 27.7 nM.

For orientation: Ki means the dissociation constant of the complex between target and ligand, obtained from inhibition or displacement.
